Reference: US8569331B2 (ArQule, Inc., priority 2010, dated 2013)
Counter-ions that a name gives are not always drawn.

Biological target: T1, AKT1 (Homo sapiens, UniProt P31749)
T1 construct: Full-length non-phosphorylated AKT1 is diluted in assay buffer
Assay: AKT1 Alpha Screen Assay
Format: biochemical
Details: full-length non-phosphorylated AKT1 8 nM, activated by PDK1 and MAPKAPK2, lipid vesicles, 50 μM ATP; biotinylated crosstide substrate; AlphaScreen
Method: AKT1 activity is assayed using the GSK3-derived biotinylated peptide substrate, crosstide (biotin-[…]), and AlphaScreen™ (Amplified Luminescent Proximity Homogeneous Assay) technology. AKT1 activation is achieved by the addition of the activating kinases PDK1 and MAPKAPK2, lipid vesicles, and ATP. The extent of peptide phosphorylation is determined using a phospho-AKT substrate antibody and acceptor beads conjugated to Protein A and donor beads conjugated to streptavidin that will bind to the biotin on the peptide. Excitation of the donor beads converts ambient oxygen to excited singlet oxygen which, when in close proximity to acceptor beads, reacts with acceptor beads resulting in signal amplification.
Test inhibitors and controls are prepared in 10% DMSO at 10-fold the desired final concentration, and added to each well of a reaction plate (Corning 96-well half-area solid white nonbinding surface plate) in a volume of 2.5 μL. Full-length non-phosphorylated AKT1 is diluted in assay buffer (50 mM Tris, pH 8.0, 0.02 mg/mL BSA, 10 mM MgCl2, 1 mM EGTA, 10% glycerol, 0.2 mM Na3VO4, 1 mM DTT, 0.1 mM β-glycerophosphate, and 0.2 mM NaF) and added to each well in a volume of 17.5 μL for a final concentration in the 25 μL reaction of 8 nM (Akt1). […] Assay plates are incubated for 90 minutes at room temperature in the dark, and the plates are read on a Perkin Elmer Envision Multilabel plate reader (excitation wavelength: […], emission wavelength: 570 nm).
Reaction conditions: 2.5 μL 10× Akt inhibitor in 10% DMSO; 17.5 μL non-phosphorylated Akt or buffer for blank; 20 minute pre-incubation at room temperature; 5 μL Reaction Mix (5×ATP, 5×substrate, 5×PDK1, 5×MK2, and 5× lipid vesicle mixture); 30 minute incubation at room temperature; 10 μL Detection Buffer; 90 minute incubation at room temperature and Detection (excitation: 640 nm, emission: 570 nm).

T1 sequence (P31749 whole entry): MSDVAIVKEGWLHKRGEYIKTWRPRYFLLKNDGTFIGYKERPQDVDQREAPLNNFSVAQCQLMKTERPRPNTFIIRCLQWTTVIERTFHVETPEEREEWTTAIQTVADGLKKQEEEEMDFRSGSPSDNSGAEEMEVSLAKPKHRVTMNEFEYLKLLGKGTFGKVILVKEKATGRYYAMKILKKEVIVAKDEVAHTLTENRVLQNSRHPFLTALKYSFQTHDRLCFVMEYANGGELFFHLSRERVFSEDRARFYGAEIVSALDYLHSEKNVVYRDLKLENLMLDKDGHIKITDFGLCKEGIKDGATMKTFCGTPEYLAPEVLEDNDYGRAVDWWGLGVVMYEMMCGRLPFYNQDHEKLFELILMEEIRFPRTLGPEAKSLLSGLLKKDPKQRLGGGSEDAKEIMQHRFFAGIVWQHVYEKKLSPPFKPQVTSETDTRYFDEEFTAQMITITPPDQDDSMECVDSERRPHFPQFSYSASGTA

IC50 | SMILES
0.295 µM | NC1(c2ccc(-c3c(-c4cccc(F)c4)nc4n3-c3cccnc3Nc3ccccc3-4)cc2F)CCC1 [Example 140]
0.028 µM | NC1(c2ccc(-c3c(-c4ccoc4)nc4n3-c3cccnc3Nc3ccccc3-4)cc2)CCC1 [Example 9]
0.003 µM | Nc1ncc(-c2nc3n(c2-c2ccc(C4(N)CCC4)cc2)-c2cccnc2Nc2ccccc2-3)cn1 [Example 31, trihydrochloride]
0.053 µM | NC1(c2ccc(-c3c(-c4ccc(-c5ccccc5)cc4)nc4n3-c3cccnc3Nc3ccccc3-4)cc2)CCC1 [Example 138]
0.122 µM | NCc1ccc(-c2c(-c3ccccc3)nc3n2-c2cccnc2Nc2ccccc2-3)cc1 [Example 143]
0.084 µM | NC1(c2ccc(-c3c(-c4ccccc4F)nc4n3-c3cccnc3Nc3ccccc3-4)cc2)CCC1 [Example 136]
0.485 µM | Cc1ccccc1-c1nc2n(c1-c1ccc(C3(N)CCC3)c(F)c1)-c1cccnc1Nc1ccccc1-2 [Example 142]
0.168 µM | NC1(c2ccc(-c3c(-c4ccccc4F)nc4n3-c3cccnc3Nc3ccccc3-4)cc2F)CCC1 [Example 137]
0.184 µM | NC1(c2ccc(-c3nc4n(c3-c3ccccc3)-c3cccnc3Nc3ccccc3-4)cc2)CCC1 [Example 144]
0.014 µM | NC1(c2ccc(-c3c(-c4cnccn4)nc4n3-c3cccnc3Nc3ccccc3-4)cc2)CCC1 [Example 15]
0.073 µM | NC1(c2ccc(-c3c(-c4cccs4)nc4n3-c3cccnc3Nc3ccccc3-4)cc2)CCC1 [Example 83]
> 1 µM | Cc1cccc(NC(=O)Cc2nc3n(c2-c2ccc(C4(N)CCC4)cc2)-c2cccnc2Nc2ccccc2-3)n1 [Example 146]
0.074 µM | NC1(c2ccc(-c3c(-c4cccc(F)c4)nc4n3-c3cccnc3Nc3ccccc3-4)cc2)CCC1 [Example 139]
0.046 µM | C[C@H](N)c1ccc(-c2c(-c3ccccc3)nc3n2-c2cccnc2Nc2ccccc2-3)cc1 [Example 147]
0.343 µM | Cn1nccc1-c1nc2n(c1-c1ccc(C3(N)CCC3)cc1)-c1cccnc1Nc1ccccc1-2 [Example 70]
0.003 µM | NC1(c2ccc(-c3c(-c4nccs4)nc4n3-c3cccnc3Nc3ccccc3-4)cc2)CCC1 [Example 150]
0.066 µM | C[C@@H](N)c1ccc(-c2c(-c3ccccc3)nc3n2-c2cccnc2Nc2ccccc2-3)cc1 [Example 148]
0.451 µM | Cc1ccccc1-c1nc2n(c1-c1ccc(C3(N)CCC3)cc1)-c1cccnc1Nc1ccccc1-2 [Example 141]
0.018 µM | NCc1ccc(-c2nc3n(c2-c2ccc(C4(N)CCC4)cc2)-c2cccnc2Nc2ccccc2-3)cc1 [Example 149]
> 1 µM | NC1(c2ccc(-c3c(CC(=O)Nc4ccccc4)nc4n3-c3cccnc3Nc3ccccc3-4)cc2)CCC1 [Example 145]
0.083 µM | COc1ccc(-c2nc3n(c2-c2ccc(C4(N)CCC4)c(F)c2)-c2cccnc2Nc2ccccc2-3)cc1 [Example 127]
0.119 µM | NC1(c2ccc(-c3c(-c4ccc(F)cc4)nc4n3-c3cccnc3Nc3ccccc3-4)cc2F)CCC1 [Example 135]
0.053 µM | NC1(c2ccc(-c3c(-c4ccc(F)cc4)nc4n3-c3cccnc3Nc3ccccc3-4)cc2)CCC1 [Example 134]
0.004 µM | NC1(c2ccc(-c3c(-c4ncco4)nc4n3-c3cccnc3Nc3ccccc3-4)cc2)CCC1 [Example 151]
0.027 µM | COc1ncc(-c2nc3n(c2-c2ccc(C4(N)CCC4)cc2)-c2cccnc2Nc2ccccc2-3)s1 [Example 68]
